The values below come from article PMC10252845, “Identification and Characterization of Novel ACE Inhibitory and Antioxidant Peptides from Sardina pilchardus Hydrolysate” (Foods, 2023).

Data set [1] concerns the target T1, ACE (from rabbit lung) (Oryctolagus cuniculus, UniProt P12822).
T1 construct: ACE (from rabbit lung); purchased Sigma Chemicals Co., Ltd. (St. Louis, MO, USA); host or cells: rabbit lung (tissue of origin)
T1 sequence (P12822 34-1310): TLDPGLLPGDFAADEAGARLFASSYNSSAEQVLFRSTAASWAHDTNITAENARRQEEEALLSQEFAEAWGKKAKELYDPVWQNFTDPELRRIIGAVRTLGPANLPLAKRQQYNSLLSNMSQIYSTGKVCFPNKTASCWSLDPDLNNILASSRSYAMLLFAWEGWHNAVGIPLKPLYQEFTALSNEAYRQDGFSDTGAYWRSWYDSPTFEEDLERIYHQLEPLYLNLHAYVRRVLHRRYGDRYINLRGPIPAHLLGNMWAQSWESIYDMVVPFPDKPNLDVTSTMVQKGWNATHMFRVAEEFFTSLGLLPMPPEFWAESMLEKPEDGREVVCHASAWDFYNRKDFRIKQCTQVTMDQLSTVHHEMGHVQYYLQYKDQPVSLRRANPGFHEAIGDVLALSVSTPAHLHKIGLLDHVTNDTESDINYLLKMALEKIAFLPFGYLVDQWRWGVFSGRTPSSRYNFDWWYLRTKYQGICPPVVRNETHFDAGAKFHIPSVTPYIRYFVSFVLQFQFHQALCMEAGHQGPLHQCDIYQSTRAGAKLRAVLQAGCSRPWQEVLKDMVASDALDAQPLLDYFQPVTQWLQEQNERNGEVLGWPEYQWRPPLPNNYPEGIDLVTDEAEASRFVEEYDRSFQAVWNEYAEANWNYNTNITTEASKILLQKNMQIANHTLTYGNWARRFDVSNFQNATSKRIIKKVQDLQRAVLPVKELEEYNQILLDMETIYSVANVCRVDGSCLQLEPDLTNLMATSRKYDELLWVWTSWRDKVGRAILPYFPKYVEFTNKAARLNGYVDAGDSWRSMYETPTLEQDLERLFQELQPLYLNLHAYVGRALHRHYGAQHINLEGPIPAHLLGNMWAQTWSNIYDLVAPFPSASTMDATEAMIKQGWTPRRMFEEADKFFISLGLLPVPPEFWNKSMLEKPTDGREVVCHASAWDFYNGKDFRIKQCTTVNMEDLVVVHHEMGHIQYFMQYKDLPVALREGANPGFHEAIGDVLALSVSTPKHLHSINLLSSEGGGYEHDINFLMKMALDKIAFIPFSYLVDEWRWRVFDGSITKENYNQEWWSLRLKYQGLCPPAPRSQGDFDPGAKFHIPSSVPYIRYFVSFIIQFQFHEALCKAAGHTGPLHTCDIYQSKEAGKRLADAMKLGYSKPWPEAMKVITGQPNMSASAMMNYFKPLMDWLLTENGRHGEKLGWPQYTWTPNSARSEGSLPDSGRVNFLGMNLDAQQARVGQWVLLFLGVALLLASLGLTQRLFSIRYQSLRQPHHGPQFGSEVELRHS
In words: In vitro ACE inhibitory activity assay (HHL substrate, hippuric acid by HPLC). The settings on record: synthetic peptides; read-out: IC50 for ACE inhibition (converted). The format is biochemical. An excerpt:
(§1) Raw sardines (S. pilchardus) were purchased from Xiangtai Fisheries Co., Ltd. (Haikou, Hainan, China). ACE (from rabbit lung) and N-Hippuryl-His-Leu (HHL) were purchased from Sigma Chemicals Co., Ltd. (St. Louis, MO, USA). Dispase (enzyme activity 200 U/mg) was purchased from Adamas Chemicals Co., Ltd. (Shanghai, China). Alkaline protease (enzyme activity 200 U/mg) and borate buffer solution (BBS, pH8.4, containing 0.1 M H3BO3 and 0.025 M Na2B4O7) were purchased from Shanghai Yuanye Biotechnology Co., Ltd. (Shanghai, China). Trifluoroacetic acid (TFA), formic acid (FA), and acetonitrile (ACN) were obtained from Thermo Fisher Scientific Co., Ltd. (Waltham, MA, USA). The materials used for HPLC analysis were of HPLC grade, and all other reagents were of analytical grade. Artificial gastric fluid (10 g/L pepsin) and artificial intestinal fluid (10 g/L pancreatic enzyme) were purchased from Guangzhou Testing Technology Co., Ltd. (Guangzhou, China).
The ACE inhibitory activity assay was determined according to a previous report with some modifications. HHL was dissolved in BBS to make a solution with a concentration of 5 mmol/L. The ACE was dissolved in BBS at a concentration of 0.06 U/mL. The reaction system was as follows: 20 μL of 0.06 U/mL ACE solution and 40 μL of sample solution or control (BBS) was added. After 5 min in a water bath at 37 °C, 50 μL of 5 mM HHL was added and incubated at 37 °C for 1 h. At the end of the incubation, 50 μL of […] was added to terminate the reaction. 500 μL water was added to the reaction system. Hippuric acid (HA) was quantified after being released from the system using HPLC and InertSustain C18 (5 μm, 4.6 × 250 mm). HPLC analysis conditions were as follows: the UV wavelength was constant at 228 nm, the mobile phase was 0.1% TFA/25% ACN in water, the flow rate was 1 mL/min, and the injection volume was 10 μL. The ACE inhibition activity was calculated by the following equation:(1) ACE Inhibition Activity=∆A−∆B/∆A × 100, where ΔA represented the peak area of HA in the control group; ΔB represented the peak area of the sample group.
All experiments were performed in triplicate (except for the molecular docking results), and data were reported as mean ± SD (n ≥ 3). An ANOVA test using SPSS 26.0 (SPSS Corporation, Chicago, IL, USA) was used to analyze the experimental data. The IC50 value was defined as the half concentration of the peptide required to inhibit the ACE activity, and the IC50 of the ACE inhibitory peptides was determined by calculating the ACE inhibition rate at various sample concentrations using the SPSS 26.0 probit regression model.

Data set [2] can be described thus: Digestive stability in artificial intestinal fluid. Type of data set: in vitro ADME. To be noted: 37 °C, 2.0 h.
Text: as §1
Peptides were quantified using HPLC and InertSustain C18 (5 μm, 4.6 × 250 mm). For FIGR, HPLC analysis conditions were as follows: the UV wavelength was constant at 228 nm, the mobile phase was 0.1% TFA/15% ACN in water, the flow rate was 1 mL/min, and the injection volume was 10 μL. For rest peptides, the mobile phase was 0.1% TFA/25% ACN in water, and the other conditions were the same as FIGR.
The peptide solutions of 0.10, 0.25, 0.50, 1.00, and 1.50 mg/mL were prepared precisely, and the peak areas of the peptides at different concentration conditions were determined. The peak area was plotted as the vertical coordinate and the concentration as the horizontal coordinate to find out the regression equation.
In total, 50 μL of the 10 mg/mL peptide solution was mixed with 450 μL of artificial gastric fluid or artificial intestinal fluid in a water bath at 37 °C for 2.0 h. Then, digestion was stopped in a water bath at 90 °C for 5 min, and the method for determining the peptide content was mentioned in Section 2.10.1. Peptide preservation rate was calculated as (3) Peptide Preservation Rate=Peptide content after treatment/Peptide content before treatment × 100,

For data set [3], the system named is ACE. To be noted: cited from earlier work.
A short description of data set [4]: Fe2+-chelating ability (ferrozine). The settings on record: positive control 10 μg/mL.
Protocol: When Fe^2+ and ferrozine are combined, they form a stable magenta-colored complex. The presence of chelators in the solution can cause them to bind with the Fe^2+ ions, thereby preventing the formation of the Fe^2+-ferrozine complex. As a result, the amount of Fe^2+-ferrozine complex in the solution decreases, leading to a decrease in the absorbance of the solution at 562 nm.
The sample (1 mg/mL) group was a 1 mL sample mixed with 3.7 mL deionized water and 0.1 mL of FeCl2 (2 mmol/L) and 0.2 mL of ferrozine (5 mmol/L). The mixture was protected from light and kept at room temperature for 10 min prior to measuring the absorbance at 562 nm. Control group contained everything, except it used deionized water instead of sample, and blank group used deionized water instead of FeCl2 (2 mmol/L). […] The chelating ability was calculated according to the following equation:(7) Fe^2+-chelating ability=(1 − A1−A2/A3) × 100, where A1 is absorbance of sample group, A2 is absorbance of blank group, and A3 is absorbance of control group.
Data set [5] in a line: ABTS+ scavenging activity. To be noted: positive control 10 μg/mL. As to the method: The 2,2′-Azinobis(3-ethylbenzothiazoline-6-sulfonic acid Ammonium Salt (ABTS) is commonly utilized as a stable free radical source in experiments. It is oxidized by potassium persulfate to produce an ABTS+ radical cation, which has a blue-green hue and absorbs light at 734 nm. When antioxidants are added, the free radical cations are reduced to the colorless ABTS form.
The ABTS+ was generated by mixing 7 mM ABTS and 4.09 mM potassium persulfate in the same volume, and the mixture was kept in the dark at room temperature for 12 h before use. The sample (1 mg/mL) group added sample 0.5 mL with 1 mL of ABTS+ solution. Control group was the same as the sample group, except that the sample was replaced with deionized water. Blank group was added deionized water 0.5 mL with 1 mL of ABTS+ solution. After incubation at room temperature for 6 min, the absorbance was tested at 734 nm. The positive control was 10 μg/mL glutathione (GSH). The sample’s concentration of 1 mg/mL falls within the linear range of the sample’s ABTS scavenging ability. (5) ABTS+Scavenging Activity=(1 − A1−A2/A3) × 100, where A1 is absorbance of sample group, A2 is absorbance of control group, and A3 is absorbance of blank group.

A short description of data set [6]: DPPH radical scavenging activity. The settings on record: positive control 10 μg/mL. Here is the method:
The 2,2-diphenyl-1-picrylhydrazyl (DPPH) is a stable free radical with a distinct purple color and absorbs light at 517 nm. Antioxidants added to the DPPH solution lead to a reduction in the DPPH radical to a non-radical form, resulting in a decrease in the solution’s absorbance. […] This principle of DPPH radical scavenging is commonly utilized for evaluating the antioxidant capacity of various substances, such as peptides.
Sample (1 mg/mL) group was aliquots of samples being mixed 1:1 (v/v) with 0.1 mmol/L DPPH (in ethanol absolute); control group was aliquots of samples being mixed 1:1 (v/v) with ethanol absolute; and blank group was aliquots of ethanol absolute being mixed 1:1 (v/v) with 0.1 mmol/L DPPH (in ethanol absolute). The mixture was shaken and kept for 40 min at room temperature and protected from light. The radical scavenging activity of DPPH radical was determined by measuring the absorbance at 517 nm. […] In this study, the sample concentration was 1 mg/mL, which was determined to be within the linear range of the concentration of the sample and its DPPH scavenging ability. The ability of the sample to scavenge DPPH radical was calculated according to the following equation:(4) DPPH Radical Scavenging Activity=(1 − Ai−Aj/A0) × 100, where Ai is absorbance of sample group, Aj is absorbance of control group, and A0 is absorbance of blank group.

The nature of data set [7]: Hydroxyl radical scavenging activity (salicylic acid). To be noted: positive control 10 μg/mL. As to the method:
The hydroxyl radical (·OH) is a free radical that comprises an oxygen atom and a hydrogen atom (·OH). The principle behind measuring hydroxyl radical scavenging activity involves the reaction between the hydroxyl radical and salicylic acid, which produces 2, 3-dihydroxybenzoic acid that can be quantified by measuring the absorbance at 510 nm.
The 1 mL of sample (1 mg/mL) was mixed with 1 mL of 4.5 mmol/L of ferrous sulfate and 1 mL of 30% H2O2 (v/v). The reaction mixture was standing for 10 min after vortexing. Then, 1 mL of 4.5 mmol/L salicylic acid was added and subsequently vortexed. After a water bath at 37 °C for 30 min, the absorbance of the mixture was measured at 510 nm (As). For the control, deionized water was added instead of salicylic acid (Ac). Vitamin C (Vc) was used as a positive control at 10 μg/mL. Hydroxyl radical scavenging activity was calculated as follows:(6) Hydroxyl Radical Scavenging Activity=(1 − Ac−As/Ac) × 100,

Where a SMILES comes first, the peptide text is derived from it.

For `CC(C)C[C@H](NC(=O)[C@H](Cc1ccccc1)NC(=O)[C@@H](N)CCCCN)C(=O)O` [KFL] (H-Lys-Phe-Leu-OH; N-terminus and C-terminus assumed), the IC50 in data set [1] was 1500 µM. Moreover, the “Retention rate after intestinal digestion” value (from here on “Retention rate”) in data set [2] is on record as 73.36% ± 0.86.

For `CC[C@H](C)[C@H](NC(=O)[C@@H](N)Cc1ccccc1)C(=O)N[C@@H](CC(C)C)C(=O)N[C@@H](CCCNC(=N)N)C(=O)O` [FILR] (H-FILR-OH; N-terminus and C-terminus assumed), the “Retention rate” value in data set [2] is reported as 86.23% ± 1.60.

Turning to RWDISQPY, the ACE inhibition pattern result in data set [3] is listed as “Competitive”.

On to `CC(C)C[C@H](NC(=O)[C@@H](N)CCCCN)C(=O)N[C@@H](Cc1ccccc1)C(=O)O` [KLF] (H-Lys-Leu-Phe-OH; N-terminus and C-terminus assumed), for which the IC50 in data set [1] is 2190 µM. The “Retention rate” value in data set [2] is reported as 88.92% ± 2.60.

As for `CC(C)C[C@H](NC(=O)[C@H](CCCNC(=N)N)NC(=O)[C@H](CCC(N)=O)NC(=O)[C@@H](N)Cc1ccccc1)C(=O)O` [FQRL] (H-FQRL-OH; N-terminus and C-terminus assumed), the “Retention rate” value in data set [2] is 25.62% ± 2.01.

Turning to `O=C([O-])CN(CCN(CC(=O)O)CC(=O)O)CC(=O)[O-].[Na+].[Na+]` [EDTA-2Na], in data set [4], the “Fe2+ chelating capacity” value is 28.81% ± 1.13.

For `CC[C@H](C)[C@H](NC(=O)[C@@H](N)Cc1ccccc1)C(=O)NCC(=O)N[C@@H](CCCNC(=N)N)C(=O)O` [FIGR] (H-FIGR-OH; N-terminus and C-terminus assumed), in data set [1], the IC50 is 1220 µM. In addition, the “Retention rate” value in data set [2] is recorded as 50.78% ± 0.77.

As to `N[C@@H](CCC(=O)N[C@@H](CS)C(=O)NCC(=O)O)C(=O)O` [GSH, Glutathione], the ABTS scavenging capacity in data set [5] was 9.01% ± 0.69. The DPPH scavenging capacity in data set [6] was 33.25% ± 1.44.

Regarding `O=C1O[C@H]([C@@H](O)CO)C(O)=C1O` [Vc, Vitamin C], the “Hydroxyl radical scavenging ability” value in data set [7] was 9.39% ± 0.54.

Take AEYLCEAC: the IC50 in data set [3] is 4290 µM.

As for `CC(C)C[C@H](NC(=O)[C@H](C)NC(=O)[C@H](CCCNC(=N)N)NC(=O)[C@@H](N)Cc1ccccc1)C(=O)O` [FRAL] (H-FRAL-OH; N-terminus and C-terminus assumed), the IC50 in data set [1] was 1310 µM. For the same compound, the “Retention rate” value in data set [2] is 10.83% ± 0.44.
